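96-well plates; 48 h exposure; 5 concentrations. Endpoints by linear interpolation between flanking doses. Not reached: highest tested concentration assigned. TGI: total growth inhibition.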
Tests used:
Experiment in all cases: NCI tumour cell line growth inhibition, 48 h
TK-10 renal = test system: TK-10 renal
M14 melanoma = test system: M14 melanoma
MOLT-4 leukemia = test system: MOLT-4 leukemia
CCRF-CEM leukemia = test system: CCRF-CEM leukemia
T-47D breast = test system: T-47D breast
CAKI-1 renal = test system: CAKI-1 renal
HCT-15 colon = test system: HCT-15 colon
U251 CNS = test system: U251 CNS
PC-3 prostate = test system: PC-3 prostate
MDA-N = test system: MDA-N
OVCAR-5 ovarian = test system: OVCAR-5 ovarian
LOX IMVI melanoma = test system: LOX IMVI melanoma
NCI/ADR-RES ovarian = test system: NCI/ADR-RES ovarian
K-562 leukemia = test system: K-562 leukemia
HT29 colon = test system: HT29 colon
A549 NSCLC = test system: A549 NSCLC
SN12C renal = test system: SN12C renal
NCI-H460 lung = test system: NCI-H460 lung
OVCAR-4 ovarian = test system: OVCAR-4 ovarian

Row | SMILES | TGI (TK-10 renal) [µM] | TGI (M14 melanoma) [µM] | TGI (MOLT-4 leukemia) [µM] | TGI (CCRF-CEM leukemia) [µM] | TGI (T-47D breast) [µM] | TGI (CAKI-1 renal) [µM] | TGI (HCT-15 colon) [µM] | TGI (U251 CNS) [µM] | TGI (PC-3 prostate) [µM] | TGI (MDA-N) [µM] | TGI (OVCAR-5 ovarian) [µM] | TGI (LOX IMVI melanoma) [µM] | TGI (NCI/ADR-RES ovarian) [µM] | TGI (K-562 leukemia) [µM] | TGI (HT29 colon) [µM] | TGI (A549 NSCLC) [µM] | TGI (SN12C renal) [µM] | TGI (NCI-H460 lung) [µM] | TGI (OVCAR-4 ovarian) [µM]
1 | Cc1[nH]c2c(C)ccc(C)c2c1CC(=O)O | > 100 | > 100 | 54.1 | 42.3 | > 100 | > 100 | > 100 | > 100 | 69.9 | > 100 | > 100 | > 100 | > 100 | > 100 | > 100 | > 100 | > 100 | > 100 | > 100
2 | CCOC(=O)Cn1c(=O)c2nc(SC)sc2n(-c2ccc(C)cc2)c1=S | > 89.8 | > 100 | > 100 | > 100 | > 100 | > 100 | > 100 | 71.6 | > 100 | > 100 | > 100 | > 100 | > 100 | > 100 | > 100 | > 100 | > 100 | > 100 | 35.2
3 | NC(=S)SCCC(=O)O | > 100 | > 100 | > 100 | > 100 | > 100 | > 100 | > 100 | > 100 | > 100 | > 100 | > 100 | > 100 | > 100 | > 100 | > 100 | > 100 | > 100 | > 100 | > 100
4 | O=C(OCc1ccccc1)N1CCNCCNCC1 | > 100 | > 100 | > 100 | > 100 | > 100 | > 100 | > 100 | > 100 | > 100 | > 100 | > 100 | > 100 | > 100 | > 100 | > 100 | > 100 | > 100 | > 100 | > 100
5 | NCC(=O)C(O)C(O)C(O)CO (configuration not stated) | > 100 | > 100 | > 100 | > 100 | > 100 | > 100 | > 100 | > 100 | > 100 | > 100 | > 100 | > 100 | > 100 | > 100 | > 100 | > 100 | > 100 | > 100 | > 100
6 | CC(=O)C1(c2ccccc2)CCN(Cn2sc3nc(C)cc(C)c3c2=O)CC1 | 36.1 | 71.6 | 77.3 | > 100 | > 100 | > 100 | 72.8 | > 100 | > 100 | 41 | 39 | 57.8 | > 100 | > 100 | 36.9 | > 100 | 49.8 | 34.1 | 48
7 | COC(=O)/C=C\c1ccc2c(c1)CC1(C2)Cc2ccc(/C=C/C(=O)OC)cc2C1 (configuration not stated) | > 31.6 | > 31.6 | > 31.6 | > 31.6 | > 31.6 | > 100 | > 31.6 | > 31.6 | > 31.6 | > 31.6 | > 31.6 | > 31.6 | > 31.6 | > 31.6 | > 31.6 | > 31.6 | > 31.6 | > 100 | > 31.6
8 | Cc1cc(C)c2c(=O)cc(-c3ccc(Cl)cc3)[nH]c2n1 | > 100 | > 100 | > 100 | > 100 | > 100 | > 55.4 | > 100 | > 100 | > 50.7 | 25 | > 100 | > 100 | > 74.3 | > 71.4 | > 48.5 | > 100 | > 100 | > 100 | > 100
9 | O=c1c2cccnc2[nH]c2ccc3scnc3c12 | > 10 | > 10 | > 10 | > 10 | > 10 | > 10 | > 10 | > 10 | > 10 | > 10 | > 10 | > 10 | > 10 |  | > 10 | > 10 | > 10 | > 10 | > 10
10 | CN(CCc1ccc(Br)cc1)CCN1CCCCC1 | > 100 | 45.8 | > 100 | 36.6 | > 100 | > 100 | > 100 | > 100 | > 100 | 88 | > 100 | 94.2 | > 100 | 41.5 | 38.8 | > 100 | > 100 | > 100 | > 100
11 | COC(=O)C1([C@@H]2C[C@@H](O)[C@]3(C)CC/C=C(\C)CCC[C@H](C)[C@H](O)[C@@H]2O3)CC1 | > 100 | > 100 | 88.8 | > 100 | > 100 | > 100 | > 100 | > 100 | > 100 | > 100 | > 100 | > 100 | > 100 | > 100 | > 100 | > 100 | > 100 | > 100 | > 100
12 | CC(C)(C)CN1[C@@H]2CCCC[C@H]2N(CC(C)(C)C)P1(=O)Cc1ccccc1 | 25 | 26.3 | 27.5 | 31.3 | 26.6 | 27.3 | 25 | 26.5 | 19.4 | 28.4 | 25.4 | 29.6 | 27.1 | 28.2 | 21.7 | 24.1 | 30.1 | 28.1 | 24.9
13 | COc1ccc(NC(=O)C(=O)C(CC2C(=O)NC(=S)NC2=O)C(=O)c2ccc3ccccc3c2)c([N+](=O)[O-])c1 (configuration not stated) | > 100 | > 100 | > 100 | > 100 | > 100 | > 100 | > 100 | > 100 | > 100 | > 100 | > 100 | > 100 | > 100 | > 100 | > 100 | > 100 | > 100 | > 100 | > 100
14 | COc1cccc2c1C(=O)C(=O)c1c-2oc(=O)c2cc(C)cc(OC)c12 | > 75 | > 75 | 74.3 | > 75 | > 75 | > 75 | 27.7 | 23.2 | > 75 | 38.7 | > 75 | 26.5 | 31.7 | > 75 | > 75 | > 75 | > 75 | > 75 | 26.7
15 | O=S(=O)(O)c1cc(S(=O)(=O)O)c2c(N=Nc3cccc4ccccc34)c(O)ccc2c1 | > 100 | > 100 | > 100 | > 100 | > 100 | > 100 | > 100 | > 100 | > 100 | > 100 | > 100 | > 100 | > 100 | > 100 | > 100 | > 100 | > 100 | > 100 | > 100
16 | O=C(NNC(=S)Nc1ccccc1)C12CC3CC(CC(C3)C1)C2 | > 100 | 67 | 60 | > 53.5 | > 100 | > 100 | > 100 | > 100 | > 100 | > 100 | > 100 | > 91.9 | 59.7 | > 81.6 | > 100 | > 100 | > 100 | > 100 | > 100
17 | COC(=O)CCc1ccc2c(c1)CCC2 | > 100 | > 100 | > 100 | > 100 | > 100 | > 100 | > 100 | > 100 | > 100 | > 100 | > 100 | > 100 | > 100 |  | > 100 | > 100 | > 100 | > 100 | > 100
18 | COC(C)(C)C(O)C(O)C[C@H](C)C1CC=C2C1(C)CCC1[C@@]3(C)CCC(OC(C)=O)C(C)(C)C3CC(OC3OC(COC(C)=O)C(O)C(O)C3O)[C@@]21C (some centres not stated) | > 10 | > 10 | 4.13 | 7.96 | 8.73 | > 10 | > 10 | > 10 | > 10 | > 10 | > 10 | 6.55 | > 10 | > 10 | 9.01 | > 10 | > 10 | > 10 | > 10
19 | COC(=O)c1cc(NC2OCC(OC(C)=O)C(OC(C)=O)C2OC(C)=O)nc(SC)c1C(=O)OC (configuration not stated) | > 100 | > 100 | > 100 | > 100 | > 100 | > 100 | > 100 | > 100 | > 100 | > 100 | > 100 | > 100 | > 100 |  | > 100 | > 100 | > 100 | > 100 | > 100
20 | Cc1c(O)c(OC2OC(CO)C(O)C(O)C2O)cc2c1CC[C@@H]1C2(C)C(=O)C[C@]2(C)[C@@H]([C@@](C)(O)C(O)/C=C/C(C)(C)O)[C@H](O)C[C@@]12C (some centres not stated) | > 100 | > 100 | > 100 | > 100 | > 100 | > 100 | > 100 | > 100 | > 100 | > 100 | > 100 | > 100 | > 100 | > 100 | > 100 | > 100 | > 100 | > 100 | > 100
21 | COC(=O)c1cc(Br)c(C(=O)C(Cl)(Cl)Cl)[nH]1 | > 100 | > 100 | > 100 | > 100 | > 100 | > 100 | > 100 | > 100 | > 100 | > 100 | > 100 | > 100 | > 100 | > 100 | > 100 | > 100 | > 100 | > 100 | > 100
22 | CCCCCCCC/C=C\CCCCCCCCNc1ccn(C2OC(COP(=O)(O)OC3CC(n4cc(F)c(=O)[nH]c4=O)OC3CO)C(O)C2O)c(=O)n1 (configuration not stated) | > 100 | > 73.5 | 20.5 | 17.9 | > 100 | > 100 | > 100 | > 100 | > 100 | > 100 | > 100 | > 37.2 | > 100 | > 100 | > 61.8 | > 100 | > 100 | > 100 | > 100
23 | CCCCCCCCCCCCCCCCOP(=O)(O)OP(=O)(O)OCC1OC(n2ccc(N)nc2=O)CC1O (configuration not stated) | > 100 | > 100 | > 100 | > 100 | > 100 | > 100 | > 100 | > 100 | > 100 | > 100 | > 100 | > 100 | > 100 | > 100 | > 100 | > 100 | > 100 | > 100 | > 100
24 | Cn1c(=O)n(-c2c3ccccc3c(Cl)c3ccccc23)n(C(C)(C)C)c1=O | > 100 | > 100 | > 100 | > 100 | > 100 | > 100 | > 100 | > 100 | > 100 | > 100 | > 100 | > 100 | > 100 | > 100 | > 100 | > 100 | > 100 | > 100 | 
